Experimental data taken from patent US7119105B2, “Methods for treating neurodegenerative disorders using aspartyl protease inhibitors” (The Regents of the University of California, priority 1997, dated 2006).

Columns and labels:
Assay type in all cases: cell-based, rat
[1] = test system: phosphorylated tau fragment; assay: Phosphorylated tau fragments in entorhinohippocampal slice cultures (immunoblot); conditions: six days; ZPAD 20 μM, CEL5-172 10 μM, EA-1 1 μM; vs control
Method: Briefly, the caudal pole of the cerebral hemisphere containing the entorhinal cortex and hippocampus were harvested from brains of 6–7 days old Sprague-Dawley rat pups under sterile condition. 400 μm horizontal entorhinohippocampal sections cut vertical to the long axes of hippocampus were obtained using a McIlwain tissue chopper in a cutting medium consisting of MEM (with Earle's salts, Gibco), 25 mM HEPES, 10 mM Tris Base, 10 mM Glucose, and 3 mM MgCl2 (pH 7.2). Brain tissue explants were then planted onto 30 mm cell culture inserts (Illicell-CM, Millipore, Bedford, Mass.) that were placed in 6 well culture trays with 1 mL of growth medium (MEM with Hank's salts, Gibco, 20% horse serum, 3 mM glutamine, 25 mM HEPES, 5 mM NaHCO3, 25 mM glucose, 0.5 mM ascorbate, 2 mM CaCl2, 2.5 mM MgCl2, 0.5 mg/L insulin, and penicillin, pH 7.2; Bi, et al., J. Comp. Neuro., 401, 382–394 (1998). The cultures were incubated at 35° C. with a 5% CO2-enriched atmosphere and fed every other day until use.

29 kDa APP fragment = assay: APP fragment in entorhinohippocampal slice cultures (immunoblot, anti-C APP643-695); conditions: six days; ZPAD 20 μM, CEL5-172 10 μM; vs control
Method: Organotypic entorhinohippocampal cultures were prepared using the technique of Stoppini, et al., J. Neurosci. Methods, 37, 173–182 (1991). Briefly, the caudal pole of the cerebral hemisphere containing the entorhinal cortex and hippocampus were harvested from brains of 6–7 days old Sprague-Dawley rat pups under sterile condition. 400 μm horizontal entorhinohippocampal sections cut vertical to the long axes of hippocampus were obtained using a McIlwain tissue chopper in a cutting medium consisting of MEM (with Earle's salts, Gibco), 25 mM HEPES, 10 mM Tris Base, 10 mM Glucose, and 3 mM MgCl2 (pH 7.2). […]
For western blot, entorhinohippocampal explants were collected and sonicated in 10 mM Tris-HCl buffer (pH 7.4) containing 0.32 M sucrose, 2 mM EDTA, 2 mM EGTA, and 0.1 mM leupeptin. […] Immunoblots were scanned, and the digitized images were quantitatively analyzed by densitometry using the NIH Image analysis system program. […]

[2] = test system: hyperphosphorylated tau fragments (tau 29); assay: Hyperphosphorylated tau fragments (tau 29) in hippocampal slice cultures, AT8 Western blot
Method: (§1) Organotypic hippocampal cultures were prepared using the technique of Stoppini, et al. (J. Neurosci. Meth., 37:173–182 (1991)). Briefly, hippocampi were harvested from brains of 9–11 days old Sprague-Dawley rat pups under sterile condition. Horizontal sections vertical to the long axis of hippocampus were cut at 400 μm and collected in a cutting medium consisting of MEM (with Earle's salts, Gibco), 25 mM HEPES, 10 mM Tris Base, 10 mM Glucose, and 3 mM MgCl2 (pH 7.2). Slices were positioned onto 30 mm cell culture inserts (Millicell-CM, Millipore, Bedford, Mass.) that were placed in 6 well culture trays with 1 ml of growth medium (MEM with Hank's salts, Gibco, 20% horse serum, 3 mM glutamine, 25 mM HEPES, 5 mM NaHCO3, 25 mM glucose, 0.5 mM ascorbate, 2 mM CaCl2, 2.5 mM MgCl2, 0.5 mg/l insulin, and penicillin, pH 7.2; 9). The cultures were incubated at 35° C. with a 5% CO2-enriched atmosphere with medium changed every other day until use. Incubations were carried out for 14 days before the start of experiments. This period is sufficient for the slices to take on a variety of adult characteristics (Bahr, J Neurosci Res., 42:294–305 (1995); and Muller, et al., Dev. Brain Res., 71:93–100 (1993)).
Experiments were carried out using a yoked design in which one of the six culture trays was always used as a control and values for experimentally treated slices were expressed as percents of the same plate control. Hippocampal slice cultures were exposed to medium containing one of three cathepsin D inhibitors (see, below) or to ‘ZPAD’ (N-CBZ-L-phenylalanyl-L-alanine-diazomethylketone), a selective inhibitor of cathepsins B and L (Green, et al., J. Biol. Chem., 256:1923–1928 (1981); Richardson, et al., J. Cell Biol., 107:2097–2107 (1988); and Shaw, et al., Biochem. J., 186:385–390 (1980)). […]
(§2) Hippocampal slices were collected and sonicated in 10 mM Tris-HCl buffer (pH 7.4) containing 0.32 M sucrose, 2 mM EDTA, 2 mM EGTA, and 0.1 mM leupeptin. […] Immunoblots were scanned and the digitized images were quantitatively analyzed by densitometry using the NIH Image analysis system program.

[3] = test system: native (unphosphorylated) tau; assay: Native tau isoforms and 29 kDa fragment in hippocampal slice cultures, tau 1 Western blot; conditions: ZPAD six-day treatment, tau 1 antibody
Method: as §1, with “The cultures were incubated at 35° C. with a 5% CO2-enriched atmosphere with medium changed every other day until use. Incubations were carried out for 14 days before the start of experiments. This period is sufficient for the slices to take on a variety of adult characteristics (Bahr, J Neurosci Res., 42:294–305 (1995); and Muller, et al., Dev. Brain Res., 71:93–100 (1993)).” left out
(§3) Experiments were carried out using a yoked design in which one of the six culture trays was always used as a control and values for experimentally treated slices were expressed as percents of the same plate control. […]
as §2

cathepsin D isoforms = assay: Cathepsin D isoforms in hippocampal slice cultures, Western blot; conditions: ZPAD alone
Method: as §1, with “The cultures were incubated at 35° C. with a 5% CO2-enriched atmosphere with medium changed every other day until use. Incubations were carried out for 14 days before the start of experiments. This period is sufficient for the slices to take on a variety of adult characteristics (Bahr, J Neurosci Res., 42:294–305 (1995); and Muller, et al., Dev. Brain Res., 71:93–100 (1993)).” left out
as §3, §2

Substance: N-CBZ-L-phenylalanyl-L-alanine-diazomethylketone [ZPAD]
- concentration of phosphorylated tau fragment, inhibitor by itself [1]: increases
- concentration of 29 kDa APP fragment, inhibitor by itself (29 kDa APP fragment): increases
- effect on tau 29 concentration, inhibitor by itself ([2]; 2-6 days, CEL5 5 μM, EA-1 at concentrations tested, ZPAD 20 μM): increased
- increase in the hyperphosphorylated tau fragment (mean±s.e.m.) ([2]; ZPAD 20 μM by itself, 6 days, vs yoked control, 5 experiments): 104±18%
- time at which ZPAD induced increases in phosphorylated tau fragment appeared ([2]; earliest time point tested): 48 h
- increase in 29 kDa fragments [3]: 101%
- reduction of native tau concentrations (four isoforms) from yoked controls ([3]; n=8): 19–32%
- increase in heavy chain isoform of cathepsin D (cathepsin D isoforms): 70%
- effect on procathepsin D (cathepsin D isoforms; 6 days): modest increases
